Laboratory results reported in US10709783B2, “Neutron capture therapy system for eliminating amyloid β-protein” (NEUBORON MEDTECH LTD., priority 2015, dated 2020).
Read-outs that look alike come from different tables or passages of the source.

Legend:
[1] = test system: amyloid β-protein deposition plaques; experiment: Micro-PET scan of brain uptake of ^11C-labelled compound in SAMP8 model mice and control mice; assay type: in vivo
Description: (§1) SAMP8 (senescence accelerated mouse prone 8) mice are the most common animal model of AD (Alzheimer's disease), in its brain there are a large number of amyloid deposition plaque. In this example, SAMP8 mice were used as model mice, and the normal mice were used as the control mice. Both the model mice and the control mice were 10 months old. The two mice were injected with 6-borono-2-(4-methylaminophenyl)benzothiazole containing ^11C labeling, and the Micro-PET scan is used to study whether 6-borono-2-(4-methylaminophenyl)benzothiazole and amyloid β-protein have specific binding properties. Model mice and control mice weighing 31.5±0.3 g were selected, 31.0±0.6 μCi of ^11C labelled 6-borono-2-(4-methylaminophenyl)benzothiazole were injected thereto, and Micro-PET of Model INVEON from Siemens were used for scan, where the scanning window was 350-650 KeV.
(§2) It is well known to those skilled in the art that the major cause of Alzheimer's disease is that the amyloid β-protein deposition plaques accumulate in the cerebral cortex and hippocampus of the brain. In this example, Micro-PET scanned and compared the brains of the model and control mice using PMOD software. And the absorption of radioactive 6-borono-2-(4-methylaminophenyl)benzothiazole in the cerebral cortex and hippocampus of SAMP8 model mice and control mice was determined, to further illustrate that the compound is capable of specifically binding to amyloid β-protein deposition plaques.

[2] = as above; assay type: in vivo; conditions: mouse, 31 μCi; for tissue uptake at 5 min: 5 min after injection; for tissue uptake at 15 min: 15 min after injection; for tissue uptake at 25 min: 25 min after injection; for tissue uptake at 35 min: 35 min after injection
Description: as §1, §2

[3] = cerebral cortex, other: injected (kind of injection not stated), SAMP8 model mice, read-out: Cerebral cortex uptake of radiopharmaceuticals, Model mice
[4] = cerebral cortex, other: injected (kind of injection not stated), normal control mice, read-out: Cerebral cortex uptake of radiopharmaceuticals, Control mice
[5] = hippocampus, other: injection (kind of injection not stated), SAMP8 model mice, read-out: hippocampus uptake of radiopharmaceuticals, Model mice
[6] = hippocampus, other: injection (kind of injection not stated), normal control mice, read-out: hippocampus uptake of radiopharmaceuticals, Control mice

## CNc1ccc(-c2nc3ccc(B(O)O)cc3s2)cc1 [6-borono-2-(4-methylaminophenyl)benzothiazole]
[1]; 5 min after injection
  Cerebral cortex uptake Ratio (model mice/control mice): 1.9
  hippocampus uptake Ratio (model mice/control mice): 1.9
[1]; 15 min after injection
  Cerebral cortex uptake Ratio (model mice/control mice): 1.9
  hippocampus uptake Ratio (model mice/control mice): 2.3
[1]; 25 min after injection
  Cerebral cortex uptake Ratio (model mice/control mice): 2.4
  hippocampus uptake Ratio (model mice/control mice): 3.2
[1]; 30 min after injection
  brain radiopharmaceutical absorption in PET image (FIG. 4), SAMP8 model mouse relative to control mice: accumulated a large amount of radiopharmaceuticals
[1]; 35 min after injection
  Cerebral cortex uptake Ratio (model mice/control mice): 2.7
  hippocampus uptake Ratio (model mice/control mice): 3.2
[2]; [3]
  tissue uptake at 5 min: 3.03 %ID/g
  tissue uptake at 15 min: 2.88 %ID/g
  tissue uptake at 25 min: 2.79 %ID/g
  tissue uptake at 35 min: 2.68 %ID/g
[2]; [4]
  tissue uptake at 5 min: 1.61 %ID/g
  tissue uptake at 15 min: 1.48 %ID/g
  tissue uptake at 25 min: 1.17 %ID/g
  tissue uptake at 35 min: 0.99 %ID/g
[2]; [5]
  tissue uptake at 5 min: 3.44 %ID/g
  tissue uptake at 15 min: 3.5 %ID/g
  tissue uptake at 25 min: 3.45 %ID/g
  tissue uptake at 35 min: 3.27 %ID/g
[2]; [6]
  tissue uptake at 5 min: 1.8 %ID/g
  tissue uptake at 15 min: 1.49 %ID/g
  tissue uptake at 25 min: 1.09 %ID/g
  tissue uptake at 35 min: 1.01 %ID/g
